Data reported in patent US20060167094A1, “Satiety agent” (priority 2005, published 2006).

Assays:
[1] = Appetite perceptions (VAS scores) during and after 90 min intraduodenal infusion; format: in vivo, human
Method: (§1) Each subject was studied on three occasions, separated by 3-10 days, to evaluate, in a double-blind, randomized fashion, the effects of intraduodenal infusions of 1) C12, 2) C10, or 3) control solution for 90 min on appetite perceptions, energy intake, APD pressures, and plasma CCK and GLP-1 concentrations.
(§2) Once the catheter was positioned correctly, fasting motility was monitored until the occurrence of phase III of the interdigestive migrating motor complex (MMC). Immediately after the cessation of phase III activity [at time t=−15 min], a baseline venous blood sample was taken, and a visual analog scale questionnaire (VAS) (see Measurements), assessing appetite-related sensations, was administered. At t=0 min (i.e., during phase I of the MMC), the duodenal infusion of 1) C12, 2) C10, or 3) control solution was commenced and continued for 90 min. APD pressures were monitored throughout the infusion period; blood samples were taken, and the VAS administered every 15 min from t=0 min until t=90 min. At t=90 min, the infusion was terminated, and the subject was immediately extubated and offered a cold buffet-style meal, the composition of which is provided in Table 1. The amount of food offered was in excess of what the subject was expected to consume. The subject was given 30 min (i.e., t=90 min to t=120 min) to consume the meal and instructed to eat until comfortably full. After ingestion of the meal, the subject was monitored for a further 30 min, a further VAS was completed, and blood samples were taken at t=120 and 150 min. The intravenous cannula was then removed, and the subject was allowed to leave the laboratory.
Appetite sensations and energy intake. Subjective sensations of appetite, including hunger, fullness, desire to eat, prospective consumption (“how much food do you think you could eat if you were given a meal now?”), were assessed using validated VASs (Sensations of nausea and bloating were also assessed. Each VAS evaluated a sensation on a 100-mm horizontal line, where 0 represented “sensation is not felt at all” and 100 represented “sensation is felt the greatest.” Subjects were asked to place a vertical stroke on the 100-mm line in relation to what they were feeling at that particular point in time.
Baseline (“0”) values were calculated as the mean of values obtained at t=−15 and 0 min for VAS scores and plasma hormone concentrations and between t=−15 to 0 min for basal pyloric pressures, number, and amplitude of IPPWs, antral and duodenal PWs, and total number of duodenal PWSs. Basal pyloric pressures and the number and amplitude of IPPWs were expressed as means over 15-min segments during the 90-min infusion period. Numbers and amplitudes of antral and duodenal PWs were expressed as total number and mean values, respectively, for the 90-min infusion period. Duodenal PWSs were expressed as the total number of waves travelling over two, three, four, five, six, and seven channels during the 90-min infusion period. All data, except for plasma CCK and GLP-1 concentrations, were expressed as changes from baseline.
VAS scores, basal pyloric pressures, number and amplitude of IPPWs, and plasma hormone concentrations were analyzed by repeated-measures mixed model analysis of covariance (ANCOVA), with baseline as the covariate and time (0-90 min, at 15-min intervals) and treatment as within-subject factors. One-way ANOVA was used to assess the effect of treatment on energy intake, time taken to complete eating, total numbers and mean amplitudes of antral and duodenal PWs, and total number of duodenal PWSs. A logarithmic transformation was applied to nausea scores, antral amplitudes, and duodenal PWSs travelling 7.5 and 9 cm to better address the underlying assumptions of the models used (as these variables lacked normal distribution). If significance or near significance ([…]) was found, post hoc comparisons of least-squares means using Student's t-tests were performed. […]

[2] = Energy intake from the buffet meal after intraduodenal infusion; format: in vivo, human
Method: as §1, §2
Energy intake from the buffet meal [energy consumption (in kJ) and macronutrient distribution (in % and g energy)] was analyzed using commercially available software (Food works 3.0, Xyris Software; Highgate Hill, Queensland, Australia). The time taken to finish the meal (in min) was also evaluated.

plasma CCK = experiment: Plasma CCK concentrations by radioimmunoassay; format: in vivo, human
Method: as §2
(§3) Venous blood samples (10 ml) were collected in ice-chilled EDTA-treated tubes containing 400 kIU aprotinin (Trasylol, Bayer Australia) per millilitre of blood. Plasma was separated by centrifugation (3,200 rpm, 15 min, 4° C.) within 30 min of collection and stored at −70° C. until assayed.
Plasma CCK concentrations (in pmol/l) were determined after ethanol extraction using a previously described radioimmunoassay (3). A commercially available antibody (C258, Lot 105H4852, Sigma Chemical) raised in rabbits against the synthetic sulfated CCK-8 was employed. […] The intra-assay coefficient of variation (CV) was 9% and the interassay CV was 27%, with a sensitivity of 2.5 pmol/l. The sensitivity of the assay relates to its reliable detection limit.

plasma GLP-1 = experiment: Plasma GLP-1 concentrations by radioimmunoassay; format: in vivo, human
Method: as §2, §3
Plasma GLP-1 concentrations (in pmol/l) were measured by radioimmunoassay using an adaptation of a previously published method (4) Antibody, supplied by Prof. […] It is likely that this antibody also reacts with the degraded form of GLP-1(9-36) amide. Intra-assay CV was 17% and interassay CV was 18%, with a sensitivity of 1.5 pmol/l.

CCK secretion = conditions: gastric infusion, humans; cited from earlier work
[3] = during 90 min intraduodenal infusion, 0.375 kcal/min, compared with control
[4] = buffet meal, compared with control

With CCCCCCCCCCCC(=O)O [C12, lauric acid] the “fullness (VAS) after meal ingestion” value ([1]; at 120 and 150 min, after the buffet meal) was “less after C12 than C10”, the “mean score for nausea after termination of infusion” value ([1]; by 120 min (infusion terminated at 90 min)) was “close to baseline” and the “scores for bloating (VAS)” value ([1]; during 90 min intraduodenal infusion, 0.375 kcal/min) was “increased the scores for bloating”. For the same molecule, the “nausea scores (VAS)” value [1, 3] was “increased nausea scores compared with control”, the “scores for hunger (VAS)” value [1, 3] was “lower compared with control” and the “scores for prospective consumption (VAS)” value [1, 3] was “lower compared with control”. For the same molecule, the “scores for desire to eat (VAS)” value ([1]; during 90 min intraduodenal infusion, 0.375 kcal/min, healthy males, compared with control) was “lower compared with control”, the subjects reporting nausea ([1]; during C12 infusion 0.375 kcal/min, randomized study of 8 subjects) was “Five of the eight” and the “energy intake at buffet meal” value ([2]; after 90 min intraduodenal infusion 0.375 kcal/min, compared with control) was “dramatically decreased energy intake compared with control”. For the same molecule, the “reduction of energy intake compared with the control infusion” value ([2]; all subjects, C12 total energy delivered 141 kJ) was ~2,857 kJ, the “amount of energy (in g) ingested from carbohydrate” value [2, 4] was “reduced” and the “amount of energy (in g) ingested from fat” value [2, 4] was “reduced”. The “amount of energy (in g) ingested from protein” value [2, 4] was “reduced”, the “potency as suppressant of energy intake relative to C18:1” value ([2]; isoenergetic amounts, intraduodenal, humans) was “more potent suppressant of energy intake” and the “time at which eating from the buffet meal was completed” value ([2]; mean±SE, not statistically significant) was 13 ± 3.5 min. The “energy intake in the absence of nausea” value ([2]; non-nauseated subjects) was “inhibited energy intake in the absence of nausea”, the “magnitude of the reduction in energy intake” value ([2]; subjects that did not experience nausea) was ~1,801 kJ and the “magnitude of the reduction in energy intake” value ([2]; subjects who reported nausea) was ~3,840 kJ. For the same molecule, the “plasma CCK concentrations” value (plasma CCK; during 90 min infusion, compared with control) was “increased plasma CCK compared with control”, the “time of rapid rise in plasma CCK” value (plasma CCK; from start of infusion, then plateaued) was no more than 15 min and the “magnitude of the rise in plasma CCK” value (plasma CCK; in the first 15 min of infusion, 0.375 kcal/min) was roughly 12 pmol/L. For the same molecule, the “plasma CCK level relative to postprandial level” value (plasma CCK; versus levels after the buffet meal following control infusion) was “comparable to postprandial levels after the control infusion”, the “delay until plasma GLP-1 concentrations rose” value (plasma GLP-1; after the start of infusion) was 30 min and the “plasma GLP-1 concentrations compared with control” value (plasma GLP-1; during infusion, C12 effect from 30 to 90 min) was “increased plasma GLP-1”. The “plasma GLP-1 concentrations compared with C10” value (plasma GLP-1; from 45 to 90 min) was “increased plasma GLP-1”, the “plasma GLP-1 concentrations after meal ingestion” value (plasma GLP-1; t=120 and 150 min, compared with control) was “higher after the C12 infusion compared with both control” and the “GLP-1 level higher than after ingestion of the buffet meal after the control infusion” value (plasma GLP-1; versus level after ingestion of ~4,528 kJ) was 40%. The “stimulation of CCK secretion” value (CCK secretion) was “reported to stimulate CCK secretion”.
